This is an account of results in patent US20140193910A1, “METHODS FOR PRODUCING PANCREATIC PRECURSOR CELLS AND USES THEREOF” (priority 2011, published 2014).

Holding throughout (type): cell-based
The subject of test [1] is human pancreatic stem cells. Briefly: Cell clones from second digestion of pancreas tissue, DMEM-10% DFBS + GrNP supplementation. Conditions: for #clones after 1 passage, Method 1 / #clones after 1 passage, Method 2: 1 mM supplement, second digestion; for Enhancement of clonal cell proliferation: Method 1 and Method 2. On the procedure: (§1) More specifically, after mincing of intact pancreatic tissue (harvested by the National Disease Research Interchange from donors within 4 hours of death), the pancreatic tissue was digested with liberase H (Roche). Two successive digestions of 20 and 30 minutes were performed at 37° C. in serum-free Dulbecco's modified Eagle's medium (DMEM) containing 1 mg/mL LIBERASE H. The cells and cell clusters released after each of these digestions were cultured.
In one embodiment of the methods described herein, termed herein as “Method 1,” twice digested pancreas digestion products can be cultured in DMEM supplemented with 10% dialyzed fetal bovine serum (DFBS).
(§2) In another embodiment of the methods described herein, termed herein as “Method 2,” the same two successive digestion procedure can be used, but the final tissue fragments remaining after the second digestion can also be cultured independently. For this embodiment of the methods, CMRL-1066 medium can be used as a second base culture medium in parallel with DMEM for all cultured pancreatic cell and tissue preparations. In one such example of Method 2, CMRL-1066 medium was supplemented with 10% DFBS and 2 mM L-glutamine and subdivided for the same GrNP supplementations as indicated for DMEM-10% DFBS medium in Method 1.

In test [2] the test system is human pancreatic stem cells. Description: Cell clones from twice-digested fragments of pancreas tissue, CMRL-1066-10% DFBS + GrNP supplementation. As to conditions: for Clone expansion rate (percent of isolated clones that could be expanded to full cultures) / #clones after 1 passage, Method 2: 1 mM supplement; for Clone expansion rate (percent of isolated clones that could be expanded to full cultures) / #clones after 1 passage, Method 2 / Increase in number of clones (primary cell colonies) over control: CMRL-1066-10% DFBS; for #clones after 1 passage, Method 2: twice-digested tissue fragments; for Increase in number of clones (primary cell colonies) over control: Method 2; for Increase in proportion of clones that could be further expanded to full cultures: CMRL-1066 medium, tissue fragments, versus control. On the procedure: as §1, §2
Accordingly, in some embodiments of the methods described herein, the culture medium comprise Xn, Xs, or a combination thereof.

Test [3] has as its system human pancreatic stem cells. Briefly: Population doubling analysis of pooled polyclonal strains (Method 2, CMRL-1066). On the procedure: Growth properties of human pancreatic stem cell strains. Four weeks after replating, clones were picked and expanded. Cells left after clonal isolations from the CMRL-1066 conditions were pooled and grown. They were trypsinized and counted on a regular basis, and population doublings were calculated accordingly. The number of clones detected for each condition is represented on the top two histograms. The bottom histogram represents the percentage of harvested clones that continued their expansion after isolation.
After isolating clonal cell colonies produced by the embodiment of the methods described herein termed Method 2 (Table 2) for expansion, the remaining unselected cell clones were pooled and expanded as well (i.e., polyclonal strains). Population doubling analyses were performed based on the passage of the expansion pool cultures.

Consider `O=c1[nH]c(=O)c2ncn([C@@H]3O[C@H](CO)[C@@H](O)[C@H]3O)c2[nH]1` [Xs, xanthosine], for which, in test [1], the “#clones after 1 passage, Method 1” value was 13; the “#clones after 1 passage, Method 2” value is reported as 12; the “Enhancement of clonal cell proliferation” value is reported as “more effective in enhancing clonal cell proliferation than Xn”. In test [2], the “Clone expansion rate (percent of isolated clones that could be expanded to full cultures)” value was 10%; the “#clones after 1 passage, Method 2” value is 59; the “Increase in number of clones (primary cell colonies) over control” value was “approximately 50%”; the “Increase in proportion of clones that could be further expanded to full cultures” value came to 2.6 fold.
For `O=c1[nH]cnc2nc[nH]c12` [Hx, hypoxanthine], in test [1], the “#clones after 1 passage, Method 1” value amounted to 22; the “#clones after 1 passage, Method 2” value is recorded as 13; the “Enhancement of clonal cell proliferation” value is reported as “more effective in enhancing clonal cell proliferation than Xn”.
Turning to `O=c1[nH]c(=O)c2[nH]cnc2[nH]1` [Xn, xanthine], in test [1], the “#clones after 1 passage, Method 1” value was 3; the “#clones after 1 passage, Method 2” value is recorded as 5; the “Enhancement of clonal cell proliferation” value is “not statistically different than control”. Moreover, in test [2], the “Clone expansion rate (percent of isolated clones that could be expanded to full cultures)” value amounted to 13%; the “#clones after 1 passage, Method 2” value was 54; the “Increase in number of clones (primary cell colonies) over control” value is “approximately 50%”; the “Increase in proportion of clones that could be further expanded to full cultures” value was 3.4 fold. Further, the Cell expansion corresponding to the population doublings in test [3] (polyclonal strains) is around 1e+06 fold. Also, the “Population doublings of polyclonal strains” value in test [3] (supplemented medium, expansion pool cultures) turned out to be 20 population doublings.
